Tests used:
Estrogen receptor = target: T1, Estrogen receptor (Homo sapiens, UniProt P03372)
T1 sequence (P03372 whole entry): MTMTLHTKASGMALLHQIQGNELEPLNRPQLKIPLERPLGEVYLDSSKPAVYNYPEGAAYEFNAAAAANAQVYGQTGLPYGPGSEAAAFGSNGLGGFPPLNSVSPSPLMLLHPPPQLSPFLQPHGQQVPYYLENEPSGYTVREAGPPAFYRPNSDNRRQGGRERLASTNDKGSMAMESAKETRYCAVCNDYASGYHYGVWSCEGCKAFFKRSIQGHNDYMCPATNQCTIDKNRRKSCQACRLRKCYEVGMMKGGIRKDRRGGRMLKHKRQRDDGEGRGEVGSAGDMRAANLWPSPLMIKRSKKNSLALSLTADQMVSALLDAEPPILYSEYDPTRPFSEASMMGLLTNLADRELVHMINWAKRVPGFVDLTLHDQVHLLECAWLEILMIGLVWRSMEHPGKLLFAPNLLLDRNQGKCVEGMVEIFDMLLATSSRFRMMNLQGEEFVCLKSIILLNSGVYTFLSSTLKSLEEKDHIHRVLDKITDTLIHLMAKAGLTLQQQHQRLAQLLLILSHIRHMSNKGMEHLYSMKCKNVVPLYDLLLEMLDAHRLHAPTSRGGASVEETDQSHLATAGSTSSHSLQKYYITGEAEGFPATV

[1] = target: T2, 5-hydroxytryptamine receptor 1A (Homo sapiens, UniProt P08908); assay type: functional, cell-based
T2 sequence (P08908 whole entry): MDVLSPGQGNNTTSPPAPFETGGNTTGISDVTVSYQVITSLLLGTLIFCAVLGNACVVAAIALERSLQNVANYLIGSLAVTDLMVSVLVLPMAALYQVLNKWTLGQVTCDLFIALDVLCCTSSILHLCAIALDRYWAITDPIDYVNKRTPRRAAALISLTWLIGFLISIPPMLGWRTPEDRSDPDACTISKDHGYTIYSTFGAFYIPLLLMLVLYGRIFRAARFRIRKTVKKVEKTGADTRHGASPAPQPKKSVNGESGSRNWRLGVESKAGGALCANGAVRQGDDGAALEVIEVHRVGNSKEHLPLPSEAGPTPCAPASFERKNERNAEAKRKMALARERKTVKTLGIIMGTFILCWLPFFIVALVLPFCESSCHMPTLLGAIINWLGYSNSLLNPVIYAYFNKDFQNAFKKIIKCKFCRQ

[2] = target: T3, 5-hydroxytryptamine receptor 2A (Homo sapiens, UniProt P28223); assay type: functional, cell-based
T3 sequence (P28223 whole entry): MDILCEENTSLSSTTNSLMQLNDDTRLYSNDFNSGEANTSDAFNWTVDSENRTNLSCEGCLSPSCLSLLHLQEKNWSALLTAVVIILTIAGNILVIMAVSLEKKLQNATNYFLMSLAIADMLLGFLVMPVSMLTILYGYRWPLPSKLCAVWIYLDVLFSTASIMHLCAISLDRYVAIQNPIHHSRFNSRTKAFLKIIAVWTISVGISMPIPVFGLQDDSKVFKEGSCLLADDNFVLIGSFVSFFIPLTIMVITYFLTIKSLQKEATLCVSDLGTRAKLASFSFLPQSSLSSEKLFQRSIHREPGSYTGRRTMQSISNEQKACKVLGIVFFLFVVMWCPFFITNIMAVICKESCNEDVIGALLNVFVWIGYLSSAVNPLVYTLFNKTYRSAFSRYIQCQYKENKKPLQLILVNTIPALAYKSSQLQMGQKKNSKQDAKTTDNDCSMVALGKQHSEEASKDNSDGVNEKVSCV

[3] = target: Beta-2 adrenergic receptor (Homo sapiens, UniProt P07550); assay type: functional, cell-based
Sequence of Beta-2 adrenergic receptor (P07550 whole entry): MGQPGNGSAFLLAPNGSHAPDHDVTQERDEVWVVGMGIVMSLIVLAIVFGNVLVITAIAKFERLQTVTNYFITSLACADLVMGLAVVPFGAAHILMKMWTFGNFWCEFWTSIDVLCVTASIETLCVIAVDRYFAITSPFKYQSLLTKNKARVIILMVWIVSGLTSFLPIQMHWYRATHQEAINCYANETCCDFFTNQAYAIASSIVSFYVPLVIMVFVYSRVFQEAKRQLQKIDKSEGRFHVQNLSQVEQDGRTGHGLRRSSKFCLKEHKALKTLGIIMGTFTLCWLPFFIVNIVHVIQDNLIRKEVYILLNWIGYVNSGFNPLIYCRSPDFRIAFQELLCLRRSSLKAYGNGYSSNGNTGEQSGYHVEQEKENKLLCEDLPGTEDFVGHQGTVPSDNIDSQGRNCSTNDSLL

Mu-type opioid receptor = Mu-type opioid receptor (Homo sapiens, UniProt P35372); test: biochemical; assay type: functional
Sequence of Mu-type opioid receptor (P35372 whole entry): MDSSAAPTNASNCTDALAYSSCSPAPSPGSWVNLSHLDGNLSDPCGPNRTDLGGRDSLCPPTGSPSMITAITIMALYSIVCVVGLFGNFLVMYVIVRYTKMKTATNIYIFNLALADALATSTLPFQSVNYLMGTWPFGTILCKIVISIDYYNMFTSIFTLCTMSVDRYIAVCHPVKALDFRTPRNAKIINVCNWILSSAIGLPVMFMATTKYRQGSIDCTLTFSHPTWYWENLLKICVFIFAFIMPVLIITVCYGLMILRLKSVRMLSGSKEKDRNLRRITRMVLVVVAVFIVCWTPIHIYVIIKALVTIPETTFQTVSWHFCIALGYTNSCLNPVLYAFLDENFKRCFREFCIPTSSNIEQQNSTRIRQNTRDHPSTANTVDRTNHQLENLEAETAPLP

Cannabinoid receptor 1 = Cannabinoid receptor 1 (Homo sapiens, UniProt P21554); assay type: functional, cell-based
Sequence of Cannabinoid receptor 1 (P21554 whole entry): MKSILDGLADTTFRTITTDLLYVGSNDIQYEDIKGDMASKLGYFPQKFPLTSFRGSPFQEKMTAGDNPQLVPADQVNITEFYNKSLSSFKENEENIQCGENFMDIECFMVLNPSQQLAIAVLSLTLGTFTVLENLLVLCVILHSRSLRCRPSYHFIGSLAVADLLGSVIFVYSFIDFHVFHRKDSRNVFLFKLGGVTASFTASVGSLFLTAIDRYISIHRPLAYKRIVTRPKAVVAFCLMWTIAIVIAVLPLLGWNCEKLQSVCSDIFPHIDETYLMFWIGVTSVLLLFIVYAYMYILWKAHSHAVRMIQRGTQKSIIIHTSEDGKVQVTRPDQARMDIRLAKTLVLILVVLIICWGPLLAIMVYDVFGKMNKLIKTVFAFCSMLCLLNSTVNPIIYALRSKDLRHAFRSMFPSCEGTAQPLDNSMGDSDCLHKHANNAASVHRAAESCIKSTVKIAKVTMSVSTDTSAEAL

[4] = target: T3, 5-hydroxytryptamine receptor 2A; assay type: functional, cell-based; remark: listed apart in the source
Histamine H1 receptor = Histamine H1 receptor (Homo sapiens, UniProt P35367)
Sequence of Histamine H1 receptor (P35367 whole entry): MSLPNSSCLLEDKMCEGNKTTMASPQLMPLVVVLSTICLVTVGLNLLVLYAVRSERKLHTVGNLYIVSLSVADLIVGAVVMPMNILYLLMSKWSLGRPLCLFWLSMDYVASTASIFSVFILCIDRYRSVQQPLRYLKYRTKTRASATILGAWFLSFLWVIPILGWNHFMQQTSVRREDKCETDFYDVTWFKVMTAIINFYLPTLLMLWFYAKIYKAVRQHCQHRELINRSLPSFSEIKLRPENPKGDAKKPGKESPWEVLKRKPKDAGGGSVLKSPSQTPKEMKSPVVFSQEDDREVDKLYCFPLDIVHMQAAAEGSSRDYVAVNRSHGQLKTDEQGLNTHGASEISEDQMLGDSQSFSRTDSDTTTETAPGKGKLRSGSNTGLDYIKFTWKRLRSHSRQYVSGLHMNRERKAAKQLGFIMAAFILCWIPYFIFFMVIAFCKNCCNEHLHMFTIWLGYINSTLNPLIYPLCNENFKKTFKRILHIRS

Endothelin-1 receptor = target: T4, Endothelin-1 receptor (Homo sapiens, UniProt P25101)
T4 sequence (P25101 whole entry): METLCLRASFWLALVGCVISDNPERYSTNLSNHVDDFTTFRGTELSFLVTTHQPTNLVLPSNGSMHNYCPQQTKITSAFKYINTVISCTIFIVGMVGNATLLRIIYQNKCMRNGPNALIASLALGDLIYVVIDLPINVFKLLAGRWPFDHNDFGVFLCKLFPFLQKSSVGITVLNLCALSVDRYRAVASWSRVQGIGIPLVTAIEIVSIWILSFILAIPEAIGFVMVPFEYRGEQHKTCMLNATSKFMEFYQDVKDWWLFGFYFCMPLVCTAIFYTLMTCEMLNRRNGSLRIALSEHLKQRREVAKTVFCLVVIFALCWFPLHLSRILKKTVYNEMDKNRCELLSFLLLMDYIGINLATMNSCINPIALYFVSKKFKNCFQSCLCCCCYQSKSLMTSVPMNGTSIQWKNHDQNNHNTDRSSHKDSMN

[5] = target: T5, Alpha-1A adrenergic receptor (Homo sapiens, UniProt P35348)
T5 sequence (P35348 whole entry): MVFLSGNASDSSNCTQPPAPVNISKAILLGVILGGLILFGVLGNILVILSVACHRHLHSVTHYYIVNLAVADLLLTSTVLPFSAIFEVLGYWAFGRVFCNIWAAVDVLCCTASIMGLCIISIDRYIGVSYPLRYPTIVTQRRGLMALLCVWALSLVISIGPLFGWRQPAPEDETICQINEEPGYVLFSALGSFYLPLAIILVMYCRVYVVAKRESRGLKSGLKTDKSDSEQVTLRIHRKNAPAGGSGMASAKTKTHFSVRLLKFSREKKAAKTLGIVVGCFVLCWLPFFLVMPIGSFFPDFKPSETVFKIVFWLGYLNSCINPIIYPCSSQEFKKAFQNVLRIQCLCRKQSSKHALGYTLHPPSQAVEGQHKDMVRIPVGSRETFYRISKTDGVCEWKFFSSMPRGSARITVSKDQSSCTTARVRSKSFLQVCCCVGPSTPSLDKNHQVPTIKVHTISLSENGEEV
Also: assay procedure not described here.

SMILES: CC(C)N(CCCCOCC(=O)O)c1cnc(-c2ccccc2)c(-c2ccccc2)n1
- AC50 (Estrogen receptor): > 30 µM
- AC50 [1]: > 30 µM
- AC50 [2]: > 30 µM
- AC50 [3]: > 30 µM
- AC50 (Mu-type opioid receptor): > 30 µM
- AC50 (Cannabinoid receptor 1): > 30 µM
- AC50 [4]: > 30 µM
- AC50 (Histamine H1 receptor): > 30 µM
- AC50 (Endothelin-1 receptor): > 30 µM
- AC50 [5]: > 30 µM

SMILES: C[N+]12CCC(CC1)C(OC(=O)C(O)(c1ccccc1)c1ccccc1)C2 (configuration not stated)
- AC50 [2]: > 30 µM
- AC50 [3]: > 30 µM
- AC50 (Mu-type opioid receptor): > 30 µM
- AC50 (Cannabinoid receptor 1): > 30 µM
- AC50 [4]: > 30 µM
- AC50 (Histamine H1 receptor): > 30 µM
- AC50 (Endothelin-1 receptor): > 30 µM

SMILES: CC(=O)c1ccc(S(=O)(=O)NC(=O)NC2CCCCC2)cc1 [ACETOHEXAMIDE]
- AC50 (Estrogen receptor): > 10 µM
- AC50 [1]: > 10 µM
- AC50 [2]: > 30 µM
- AC50 [3]: > 30 µM
- AC50 (Mu-type opioid receptor): > 30 µM
- AC50 (Cannabinoid receptor 1): > 30 µM
- AC50 [4]: > 30 µM
- AC50 (Histamine H1 receptor): > 10 µM
- AC50 [5]: > 10 µM

SMILES: NS(=O)(=O)c1cc2c(cc1Cl)N=C(CSCc1ccccc1)NS2(=O)=O [BENZTHIAZIDE]
- AC50 (Estrogen receptor): > 30 µM
- AC50 [1]: > 10 µM
- AC50 [2]: > 10 µM
- AC50 (Mu-type opioid receptor): > 30 µM
- AC50 [4]: > 10 µM
- AC50 (Histamine H1 receptor): > 30 µM
- AC50 [5]: > 30 µM

SMILES: CO/N=C(\C(=O)N[C@@H]1C(=O)N2C(C(=O)O)=CCS[C@H]12)c1csc(N)n1 [CEFTIZOXIME]
- AC50 (Estrogen receptor): > 30 µM
- AC50 [2]: > 30 µM
- AC50 [3]: > 30 µM
- AC50 (Mu-type opioid receptor): > 30 µM
- AC50 (Cannabinoid receptor 1): > 30 µM
- AC50 [4]: > 30 µM
- AC50 (Histamine H1 receptor): > 30 µM
- AC50 (Endothelin-1 receptor): > 30 µM

SMILES: CO/N=C(\C(=O)N[C@@H]1C(=O)N2C(C(=O)O)=C(CSc3nc(=O)c(=O)[nH]n3C)CS[C@H]12)c1csc(N)n1 [CEFTRIAXONE]
- AC50 (Estrogen receptor): > 30 µM
- AC50 [1]: > 30 µM
- AC50 [2]: > 30 µM
- AC50 [3]: > 30 µM
- AC50 (Mu-type opioid receptor): > 30 µM
- AC50 (Cannabinoid receptor 1): > 30 µM
- AC50 [4]: > 30 µM
- AC50 (Histamine H1 receptor): > 30 µM
- AC50 (Endothelin-1 receptor): > 30 µM

SMILES: CC(C)[C@@H](C)/C=C/[C@@H](C)[C@H]1CC[C@H]2/C(=C/C=C3\C[C@@H](O)CC[C@@H]3C)CCC[C@]12C [DIHYDROTACHYSTEROL]
- AC50 (Estrogen receptor): > 30 µM
- AC50 [1]: > 10 µM
- AC50 [2]: > 10 µM
- AC50 [4]: > 10 µM
- AC50 (Histamine H1 receptor): > 10 µM
- AC50 [5]: > 10 µM

SMILES: CN1CCN=C(c2ccccc2)c2cc(Cl)ccc21 [MEDAZEPAM]
- AC50 [1]: > 30 µM
- AC50 [2]: > 30 µM
- AC50 [3]: > 30 µM
- AC50 (Mu-type opioid receptor): > 30 µM
- AC50 (Cannabinoid receptor 1): > 30 µM
- AC50 [4]: > 30 µM
- AC50 (Histamine H1 receptor): > 30 µM
- AC50 (Endothelin-1 receptor): > 30 µM

SMILES: O=C(NCCO[N+](=O)[O-])c1cccnc1 [NICORANDIL]
- AC50 [2]: > 30 µM
- AC50 [3]: > 30 µM
- AC50 (Mu-type opioid receptor): > 30 µM
- AC50 (Cannabinoid receptor 1): > 30 µM
- AC50 [4]: > 30 µM
- AC50 (Histamine H1 receptor): > 30 µM
- AC50 (Endothelin-1 receptor): > 30 µM

SMILES: CO[C@H]1C[C@H](O[C@H]2CC[C@@]3(C)[C@H](CC[C@@H]4[C@@H]3CC[C@]3(C)[C@@H](C5=CC(=O)OC5)[C@@H](OC(C)=O)C[C@]43O)C2)O[C@@H](C)[C@@H]1O [OLEANDRIN]
- AC50 [1]: > 30 µM
- AC50 [2]: > 30 µM
- AC50 [3]: > 30 µM
- AC50 (Cannabinoid receptor 1): > 30 µM
- AC50 [4]: > 30 µM
- AC50 (Histamine H1 receptor): > 30 µM

SMILES: O=c1[nH]c2ccccc2n1CCCN1CCN(C(c2ccccc2)c2ccccc2)CC1 [OXATOMIDE]
- AC50 [2]: 1.2 µM
- AC50 [3]: > 30 µM
- AC50 (Mu-type opioid receptor): 1.8 µM
- AC50 (Cannabinoid receptor 1): > 30 µM
- AC50 [4]: > 30 µM
- AC50 (Histamine H1 receptor): 0.034 µM
- AC50 (Endothelin-1 receptor): > 30 µM

SMILES: COc1cc2[nH]c(C)c(CCN3CCN(c4ccccc4)CC3)c2cc1OC [OXYPERTINE]
- AC50 [1]: 0.15 µM
- AC50 [2]: 0.41 µM
- AC50 [3]: > 30 µM
- AC50 (Mu-type opioid receptor): > 30 µM
- AC50 (Cannabinoid receptor 1): > 30 µM
- AC50 [4]: > 30 µM
- AC50 (Histamine H1 receptor): 1.9 µM
- AC50 (Endothelin-1 receptor): > 30 µM

SMILES: c1ccc(C2(N3CCCCC3)CCCCC2)cc1 [PHENCYCLIDINE]
- AC50 [1]: > 30 µM
- AC50 [2]: > 30 µM
- AC50 [3]: > 30 µM
- AC50 (Mu-type opioid receptor): > 30 µM
- AC50 (Cannabinoid receptor 1): > 30 µM
- AC50 [4]: > 30 µM
- AC50 (Histamine H1 receptor): > 30 µM
- AC50 (Endothelin-1 receptor): > 30 µM

SMILES: COc1cc(C(=O)OCc2cccc(COC(=O)c3cc(OC)c(OC)c(OC)c3)n2)cc(OC)c1OC [PIROZADIL]
- AC50 [1]: > 30 µM
- AC50 [2]: > 30 µM
- AC50 [3]: > 30 µM
- AC50 (Mu-type opioid receptor): > 30 µM
- AC50 (Cannabinoid receptor 1): > 30 µM
- AC50 [4]: > 30 µM
- AC50 (Histamine H1 receptor): > 30 µM
- AC50 (Endothelin-1 receptor): > 30 µM

SMILES: CC1=C(/C=C/C(C)=C/C=C/C(C)=C/CO)C(C)(C)CCC1 [RETINOL]
- AC50 (Estrogen receptor): > 30 µM
- AC50 [1]: > 10 µM
- AC50 [2]: > 10 µM
- AC50 (Mu-type opioid receptor): > 30 µM
- AC50 [4]: > 10 µM
- AC50 (Histamine H1 receptor): > 10 µM
- AC50 [5]: > 10 µM

SMILES: CCN1CCCC1CNC(=O)c1cc(S(=O)(=O)CC)ccc1OC (configuration not stated) [SULTOPRIDE]
- AC50 [1]: > 30 µM
- AC50 [2]: > 30 µM
- AC50 [3]: > 30 µM
- AC50 (Mu-type opioid receptor): > 30 µM
- AC50 (Cannabinoid receptor 1): > 30 µM
- AC50 [4]: > 30 µM
- AC50 (Histamine H1 receptor): > 30 µM
- AC50 (Endothelin-1 receptor): > 30 µM

SMILES: C=CCN1CCc2nc(N)sc2CC1 [TALIPEXOLE]
- AC50 [1]: > 30 µM
- AC50 [2]: 24 µM
- AC50 [3]: > 30 µM
- AC50 (Mu-type opioid receptor): > 30 µM
- AC50 (Cannabinoid receptor 1): > 30 µM
- AC50 [4]: 11 µM
- AC50 (Histamine H1 receptor): 28 µM
- AC50 (Endothelin-1 receptor): > 30 µM
- AC50 [5]: > 30 µM

From ChEMBL document CHEMBL5291721, “A preclinical secondary pharmacology resource illuminates target-adverse drug reaction associations of marketed drugs” (Nat Commun, 2023)
